{
  "source": "patent US7494821B2",
  "about": "“Fluorescein based sensors for tracking nitric oxide in live cells” (Massachusetts Institute of Technology, priority 2005, dated 2009)",
  "key": {"HeLa cells": {"test_system": "HeLa cells", "experiment": "Control imaging in HeLa cells", "format": "cell-based", "method": "We investigated the ability of Cu(FL5) to detect NO produced in SK-N-SH human neuroblastoma cells under physiological conditions, since constitutive NO synthase (“cNOS”) in this cell line can be activated by estrogen to produce NO. Estrogen administration leads to an increase in the cytosolic Ca(II) concentration that alters the structure of calmodulin, which in turn activates cNOS. The NO-dependent fluorescence response, monitored after simultaneous administration of 17β-estradiol (100 nM) and Cu(FL5) (1 μM) to the cells, was completed within 5 min with a 4.0±0.6-fold increase in fluorescence (FIGS. 5a and b). […] As another control, HeLa cells were co-treated with 17β-estradiol (100 nM) and Cu(FL5) (1 μM).\nTo investigate further the origin of fluorescence detected by Cu(FL5), iNOS was silenced in Raw 264.7 cells by short hairpin RNA (shRNA)-induced RNA interference (RNAi) (FIG. 6b).\nRaw 264.7, SK-N-SH, and HeLa cells were purchased from the American Type Culture Collection (ATCC). […] The expression of iNOS in Raw 264.7 cells was analyzed by Western blot on the extracts of cells stimulated by LPS and INF-γ. The protein was silenced by short hairpin RNA-induced RNAi and the resulting cell lines were used in fluorescence imaging by Cu(FL5)."}, "[1]": {"experiment": "Cell membrane passage in live cell studies", "format": "cell-based", "excerpt": "In summary, we have synthesized a Cu(II)-based fluorescein compound Cu(FL5) for imaging NO based on redox chemistry. Reduction of Cu(FL5) by NO to Cu(I) with nitrosation of the FL5 ligand is accompanied by bright visible light emission. […] Studies of Cu(FL5) in pH 7.0 aqueous buffered solutions indicate that the NO response is direct, rapid, and specific."}},
  "data": [
    {"smiles": "Cc1ccc2cccc(NCc3c([O][Cu][Cl])ccc4c(-c5ccccc5C(=O)O)c5cc(Cl)c(=O)cc-5oc34)c2n1", "note": "[Cu(FL5)]", "values": [
      {"measurement": "fluorescence in HeLa cells co-treated with 17β-estradiol", "setting": "HeLa cells; 17β-estradiol (100 nM), Cu(FL5) (1 μM)", "result": "absence of turn-on emission"},
      {"measurement": "turn-on fluorescence emission in HeLa cells treated with LPS and IFN-γ", "setting": "HeLa cells; LPS and IFN-γ prior to Cu(FL5) incubation", "result": "not observed"},
      {"measurement": "passage through cell membranes", "setting": "[1]", "result": "readily passes through cell membranes"}
    ]}
  ]
}
